Assay results taken from US20110052722A1, “Toleration Iron Supplement Compositions” (priority 2005, published 2011).

Columns and labels:
[1] = system: Sprague Dawley Crl:CD(SD) rats; assay: Repeated daily oral gavage study in rats: hematology, serum iron, gross necropsy; format: in vivo; settings: once per day oral gavage
Description: The test material solution or vehicle control was administered once per day by oral gavage administration, and individual dose volumes were calculated based on the most recent body weight data for each animal.
General health/mortality and moribundity checks were performed twice daily, and detailed clinical observations were performed on days 1, 8, and 15 prior to dosing. Hematology parameters were evaluated for all animals on days 1, 7, and 14. Blood collection for serum iron concentration evaluation was performed on these days as well, and blood samples were obtained via the orbital plexus while the animals were under light isoflurane anesthesia. All animals were subjected to complete gross necropsy examination at scheduled euthanasia.
Blood samples for hematology testing were collected in volumes of about 200 μL in tubes containing anticoagulant K2EDTA, and were evaluated for red blood cell count (RBC), hemoglobin concentration (Hb), hematocrit (Hct), mean corpuscular volume (MCV), mean corpuscular hemoglobin concentration (MCHC), mean corpuscular hemoglobin (MCH), reticulocyte count (Retic), red blood cell morphology, white blood cell count (WBC), neutrophil count (Neut), lymphocyte count (Lymph), monocyte count (Mono), eosinophil count (Eos), and basophil count (Baso). Serum iron was measured by taking about 1 mL blood samples in a serum separator tube.

[2] = total administration should not exceed; cited from earlier work
[3] = cited from earlier work
[4] = versus ferrous sulfate and/or ferrous fumarate, Newton et al. 1980, Piccinni et al. 1982

Row | Compound | immune response (segmented neutrophils, platelets, lymphocytes) ([1]; Group 2 500 mg Fe/kg, Group 3 250 + 250 mg Fe/kg, hematology days 1, 7, 14) | gross internal findings at necropsy ([1]; Group 2 500 mg Fe/kg, Group 3 250 + 250 mg Fe/kg, scheduled euthanasia) | serum iron levels ([1]; ferrous fumarate 500 mg Fe/kg (Group 2), ferrous fumarate 250 + PIC 250 mg Fe/kg (Group 3), blood on days 1, 7, 14) | toxicity limits [2] [mg/kg] | efficacy at increasing hemoglobin and hematocrit values [3, 4] | tolerability [3, 4] | gastrointestinal side effects ([3]; versus ferrous sulfate, Johnson et al., Niferex-150 in ESRD patients receiving EPOGEN)
1 | O=C([O-])/C=C/C(=O)[O-].[Fe+2] [ferrous fumarate] | about the same | body fat depletion, thyroid nodules, reddened mandibular lymph nodes, reddened stomach mucosa, small thymus, foci on the thymus, and dark fecal matter | significant increases | 200 to 250 |  |  | 
2 | polysaccharide iron complex [PIC] |  |  |  |  | equivalent efficacy | better tolerated | fewer gastrointestinal side effects
